# How the values were obtained:
# CLIC4 [1] = molecular target: T1, CLIC4 (Homo sapiens, UniProt Q9Y696); experiment: DHAR assay, GR-coupled NADPH oxidation at A340; format: biochemical; details: 5 uM protein, 1 mM DHA, 2 mM GSH, pH 7.5, 30 °C
# CLIC1 [2] = molecular target: T2, CLIC1 (Homo sapiens, UniProt O00299); experiment: HEDS assay, GR-coupled; format: biochemical; set-up: full length, His-tag (pET28a) cut with thrombin; E. coli BL21(DE3); reduced monomer by SEC; details: 5 uM CLIC1, 1 mM HEDS, 1 mM GSH, pH 7, 37 °C; mode and site not determined
# CLIC4 [3] = molecular target: T1, CLIC4; experiment: HEDS assay, GR-coupled NADPH oxidation at A340; format: biochemical; details: 5 uM protein, 1 mM HEDS, 1 mM GSH, pH 7, 37 °C
# CLIC1 [4] = molecular target: T2, CLIC1; details: 1 mM GSH, 250 uM NADPH, 50 nM GR, pH 7, 37 °C; reduced monomer; HEDS range printed as 0-6 mM, so printed unit uM is doubtful
# CLIC1 [5] = molecular target: CLIC1 (Homo sapiens, UniProt O00299, C59A); details: 1 mM GSH, 250 uM NADPH, 50 nM GR, pH 7, 37 °C; HEDS range printed as 0-6 mM, so printed unit uM is doubtful
# CLIC2 = molecular target: T3, CLIC2 (Homo sapiens, UniProt O15247); experiment: HEDS assay, GR-coupled NADPH oxidation at A340; format: biochemical; details: 5 uM protein, 1 mM HEDS, 1 mM GSH, pH 7, 37 °C
# T3 construct: full length, N-terminal GST tag (pGEX-2T) cut with thrombin; E. coli BL21(DE3)
# O=[Se](O)O = experiment: purified protein; details: 50 uM GSH, 200 uM NADPH, 50 nM GR, pH 7.5, 20 °C, reduced monomer, selenite 0-16 uM
# T1 sequence (Q9Y696 2-253): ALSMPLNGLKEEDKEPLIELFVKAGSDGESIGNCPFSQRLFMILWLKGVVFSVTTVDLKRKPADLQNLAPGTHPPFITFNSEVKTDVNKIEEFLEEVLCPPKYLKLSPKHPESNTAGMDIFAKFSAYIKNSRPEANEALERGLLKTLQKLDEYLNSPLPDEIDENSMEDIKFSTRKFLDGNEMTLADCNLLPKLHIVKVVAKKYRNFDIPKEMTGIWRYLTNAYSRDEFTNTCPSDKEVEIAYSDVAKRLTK
# T3 sequence (O15247 whole entry): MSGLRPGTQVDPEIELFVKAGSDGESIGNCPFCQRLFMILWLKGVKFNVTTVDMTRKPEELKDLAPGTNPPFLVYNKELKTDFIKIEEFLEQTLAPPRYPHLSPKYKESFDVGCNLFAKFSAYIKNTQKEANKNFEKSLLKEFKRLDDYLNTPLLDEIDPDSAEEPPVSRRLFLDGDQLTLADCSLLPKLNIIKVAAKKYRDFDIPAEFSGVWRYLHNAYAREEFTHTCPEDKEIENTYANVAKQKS
compound,measurement,setting,value
O=C1O[C@H]([C@@H](O)CO)C(=O)C1=O [dehydroascorbic acid],"DHAR assay, GR-coupled NADPH oxidation at A340",CLIC4 [1],NADPH consumption increased in the presence of CLIC1 or CLIC4
O=C(O)c1c2ccccc2cc2ccccc12 [A9C],complete inhibition at 10 uM,CLIC1 [2],both IAA-94 and A9C completely blocked the enzymatic activity of CLIC1
OCCSSCCO [2-hydroxyethyl disulfide],"HEDS assay, GR-coupled NADPH oxidation at A340",CLIC4 [3],all three proteins reduced the HEDS substrate when coupled with glutathione (GSH)
same,Km,CLIC1 [4],1.28 ± 0.65 µM
same,Km,CLIC1 [5],1.25 ± 0.65 µM
same,"HEDS assay, GR-coupled NADPH oxidation at A340",CLIC2,all three proteins reduced the HEDS substrate when coupled with glutathione (GSH)
CLIC1 (Homo sapiens),Km,O=[Se](O)O,4.81 ± 3.00 µM
CC1(C2CCCC2)Cc2cc(OCC(=O)O)c(Cl)c(Cl)c2C1=O (centres unmarked) [IAA-94],complete inhibition at 10 uM,CLIC1 [2],both IAA-94 and A9C completely blocked the enzymatic activity of CLIC1

# Reference: article PMC4291220 (PLoS ONE, 2015)
